Assay results: patent publication US20250154140A1 (Sunnybrook Research Institute, priority 2022, published 2025)

Columns and labels:
BAX = BAX (Homo sapiens, UniProt Q07812); experiment: Liposome membrane permeabilization / dye release assay (cBID activated BAX); format: biochemical; parameters: made in house; host or cells: Escherichia coli BL21-AI; settings: 20 nM cBID and 100 nM BAX
Method: The preparation of liposomes and dye-release assays were as previously described (Kale et al., 2014). The composition of liposomes, in molar %, to make a 1 mg/mL lipid film are as follows: 48% phosphatidylcholine, 28% phosphatidylethanolamine, 10% phosphatidylinositol, 10% dioleoyl phosphatidylserine, and 4% tetraoleoyl cardiolipin. Each lipid (dissolved in chloroform) was mixed in a glass test tube. Using a steady stream of nitrogen pointed inside the test tube, the tube is rotated to create a film of lipids on the glass. The tube is filled with nitrogen and covered with parafilm. The dried lipid film is then stored at −20° C. until needed. […]
The choice of ANTS/DPX or Terbium:DPA liposomes for dye release assays was dictated by the properties of those compounds being assayed for BAX inhibitory activity, that affected the fluorescence of ANTS or Terbium.
For ANTS/DPX dye release assays: ANTS (fluorophore; excitation 355 nm, emission 520 nm) and DPX (collisional quencher) are encapsulated in reconstituted liposomes. When the membrane is permeabilized, ANTS and DPX diffuse to the outside of the liposomes, decreasing the effective concentration DPX and therefore quenching by […] is decreased and ANTS fluorescence increases. […] The plate was then read a third time to assess the fluorescence of ANTS upon full dissociation of liposomes in each well (F100). […]

FL EGFR = target: T1, FL EGFR (Homo sapiens, UniProt P00533); experiment: EGFR kinase assay (ADP-Glo); format: biochemical
T1 construct: kinase domain of EGFR (amino acids 695-1210); purchased Promega V3831
T1 sequence (P00533 695-1210): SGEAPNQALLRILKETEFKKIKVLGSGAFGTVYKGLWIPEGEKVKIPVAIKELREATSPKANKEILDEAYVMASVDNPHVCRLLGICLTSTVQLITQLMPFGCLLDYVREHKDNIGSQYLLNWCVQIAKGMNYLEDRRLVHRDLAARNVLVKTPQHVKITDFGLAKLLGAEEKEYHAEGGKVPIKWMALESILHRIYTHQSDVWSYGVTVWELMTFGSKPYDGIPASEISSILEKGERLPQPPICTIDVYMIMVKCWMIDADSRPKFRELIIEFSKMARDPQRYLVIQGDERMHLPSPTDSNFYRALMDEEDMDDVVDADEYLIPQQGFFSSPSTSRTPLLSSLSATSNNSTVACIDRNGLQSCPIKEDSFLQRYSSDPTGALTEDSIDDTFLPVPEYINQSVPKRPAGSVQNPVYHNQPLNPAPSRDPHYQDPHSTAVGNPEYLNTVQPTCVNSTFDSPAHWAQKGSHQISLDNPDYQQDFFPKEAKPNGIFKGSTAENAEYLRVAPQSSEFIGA
Method: A peptide containing the kinase domain of EGFR (amino acids 695-1210) was used to assess the inhibitory potency of the inhibitors. The ADP-Glo kinase assay (Promega V9101), and the EGFR kinase enzyme (Promega V3831) were used according to the supplier's instructions. Briefly, […] reactions were assembled in wells of a 384 well plate as follows: 5 μL of the kinase reaction, 5 μL of the ADP depletion reagent, and 10 μL of the luciferase reagent. For the kinase reaction: 1 μL of the inhibitor (dissolved in DMSO) was mixed with 2 μL EGFR peptide ([…]), 1 μL of a poly Glu4Tyr1 peptide (0.2 μg/μL), 1 μL reaction buffer, and 1 μL of ATP (final concentration of 5 μM). The kinase reaction was incubated at room temperature for 1 hour. 5 μL of the ATP depletion/kinase terminating reagent was mixed into each well and incubated at room temperature for 40 minutes. 10 μL of the kinase detection reagent containing luciferase was mixed into each well and incubated at room temperature for 30 minutes for bioluminescent detection of ADP produced from the kinase reaction in step 1. Bioluminescent signal was detected in a Tecan Safire^2 with a black plug covering the excitation filter, and an empty emission filter. The integration time was increased to […] to detect enough luminescence per reading.

[1] = tested on: Baby Mouse Kidney (BMK) cells; experiment: Actinomycin D / spontaneous cell death assay in BMK cells; format: cell-based; settings: for tolerability by the cells: BMKwt cells; for effect on spontaneous cell death / effect on actinomycin D induced cell death: BMKwt; for effect on spontaneous cell death: 0 mM actinomycin D; for effect on actinomycin D induced cell death: 3.125, 6.25, 12.5 nM actinomycin D
Method: Baby Mouse Kidney (BMK) cells were from (Mathew et al., 2008). BMK double knockout, SMAC-mCherry, and BAX^−/− cell lines were generated in house as described (Niu et al., 2017). BMK lines were grown in DMEM supplemented with 10% Fetal Bovine Serum and 1×MEM non-essential amino acids in a humidified incubator at 37° C. and 5% CO2.
For cell death assays with actinomycin D, 3000 WT or DKO BMK cells were cultured in a 384 well plate and incubated overnight. The next morning, cells were treated with actinomycin D for 2 hours before the addition of BAX inhibitor. Actinomycin D and BAX inhibitor (where relevant) were then incubated for 24 hours before staining with Hoechst, AnnexinV-Alexa488, and TMRE for 30 minutes. Cells were imaged by confocal microscopy (Opera Phenix—PerkinElmer) and subsequently analyzed with Harmony (PerkinElmer) software. Cell death was scored by three criteria: the loss of TMRE signal, the appearance of AnnexinV-Alexa488 signal, and nuclear shrinkage visualized by Hoechst.

BAX, sequence (Q07812 whole entry): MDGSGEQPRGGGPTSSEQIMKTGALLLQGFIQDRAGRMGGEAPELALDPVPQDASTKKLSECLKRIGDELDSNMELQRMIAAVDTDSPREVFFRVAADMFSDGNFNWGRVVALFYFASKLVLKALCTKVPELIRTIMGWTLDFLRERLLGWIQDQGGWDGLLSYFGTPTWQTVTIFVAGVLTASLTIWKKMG

| SMILES | BAX inhibitory activity, cBID activated BAX mediated liposome permeabilization (BAX) | kinase inhibitory activity (FL EGFR; at or below 10 uM) | inhibition of actinomycin D mediated cell death in cells expressing either BAX or BAK ([1]; 1.25 or 2.5 uM compound, actinomycin D 25 nM (wild-type), 100 nM (knock-out)) | tolerability by the cells [1] | effect on spontaneous cell death [1] | effect on actinomycin D induced cell death [1] | Hill Slope (FL EGFR; FL EGFR) | spontaneous cell death in culture ([1]; BMK-wt, 0 nM actinomycin D, from ~30% without compound) [%] |
| --- | --- | --- | --- | --- | --- | --- | --- | --- |
| COc1cc2ccnc(Nc3ccc(F)c(Cl)c3)c2cc1NC(=O)CCCN1CCCCC1 [Compound I-1, N-(1-((3-chloro-4-fluorophenyl)amino)-6-methoxyisoquinolin-7-yl)-4-(piperidin-1-yl)butanamide] | retained BAX inhibitory activity equivalent to comparative compound dacomitinib | no appreciable kinase inhibitory activity | most effective inhibitor | well-tolerated | reduced the amount of spontaneous cell death | reduced cell death |  |  |
| COc1cc2ncnc(Nc3ccc(F)c(Cl)c3)c2cc1NC(=O)/C=C/CN1CCCCC1 [Dacomitinib, reference compound] | identified in a screen for compounds that inhibit |  |  | well-tolerated | reduced the amount of spontaneous cell death | reduced cell death | −1.3 | < 10 |
